Measured values from patent US12502362B2, “Inhibitors of nucleotidyltransferase superfamily enzymes as antibiotics” (priority 2017, dated 2025).
Converted amounts (≈) assume the structure as drawn.

Key:
[1] = tested on: S. aureus ATCC strains and methicillin-resistant Staphylococcus aureus (MRSA); experiment: MIC80 on S. aureus ATCC strains and MRSA; assay type: cell-based
Experimental: (§1) To further characterize the compounds, the minimal inhibitory concentration (MIC80) were determined for selected compounds. MIC80 is defined as the compound concentration at which ≥80% bacterial growth is inhibited compare to untreated controls. Meanwhile, for the selected compounds, cytotoxicity assays (CC50) were performed on a HepG2-derived hepatoblastoma cell line (HEPDES19). […] For CC50 evaluation, soluble tetrazolium dye (MTS) was used to measure mitochondrial toxicity in a human hepatoblastoma cell line (18). The bacteria (E. coli, S. saprophyticus and A. baumannii) used in MIC80 measurements were the same as that in the primary screening, but for Staphylococcus, S. aureus is used primarily because it is a common pathogen in Staphylococcaeae family, while S. saprophyticus is part of the normal human flora.

[2] = tested on: Staphylococcus epidermidis; experiment: MIC80 on S. epidermidis; assay type: cell-based
Experimental: as §1, with “(HEPDES19). […] For the MIC80 measurements, a 1.5 fold dilution series of the compounds was prepared in Mueller-Hinton II broth.” for “(HEPDES19).”, “flora. S. aureus (ATCC 29213) is methicillin-sensitive Staphylococcus aureus (MSSA) strain and it was used as a model strain to measure the MIC80.” for “flora.”
(§2) It was also tested whether compounds #63 and #285 can inhibit other coagulase-negative Staphylococcus (CNS) including S. epidermidis, S. hominis, etc. […] .

[3] = tested on: Staphylococcus hominis; experiment: MIC80 on S. hominis; assay type: cell-based
Experimental: as §1, with “(HEPDES19). […] For the MIC80 measurements, a 1.5 fold dilution series of the compounds was prepared in Mueller-Hinton II broth.” for “(HEPDES19).”, “flora. S. aureus (ATCC 29213) is methicillin-sensitive Staphylococcus aureus (MSSA) strain and it was used as a model strain to measure the MIC80.” for “flora.”
as §2

[4] = tested on: S. aureus (ATCC 29213); experiment: MIC80 on S. aureus; assay type: cell-based, Staphylococcus aureus; settings: Staphylococcus aureus, ATCC 29213 / MSSA, read-out: MIC80 S. aureus, S. aureus ATCC 29213 (MSSA); ≥80% growth inhibition
Experimental: as §1

[5] = tested on: Acinetobacter baumannii (Abl, from a patient); experiment: microbe, parasite or virus in culture; assay type: cell-based
Experimental: as §1

[6] = tested on: E. coli (ATCC 35218); experiment: microbe, parasite or virus in culture; assay type: cell-based; settings: for MIC80: Escherichia coli, ATCC35218, read-out: MIC80 E. coli, E. coli ATCC 35218; for MIC80 E. coli: E. coli ATCC 35218
Experimental: as §1

[7] = Cytotoxicity assay (CC50), MTS; assay type: cell-based, human; settings: human, HepG2-derived hepatoblastoma cell line (HEPDES19), HEPDES19 cells
Experimental: as §1

[8] = tested on: HepG2-derived hepatoblastoma cell line (HEPDES19); experiment: Cytotoxicity assay (CC50), MTS; assay type: cell-based, human; settings: HEPDES19 cells
Experimental: as §1

[9] = tested on: Coagulase negative Staphylococcus; experiment: MIC80 on coagulase negative Staphylococcus; assay type: cell-based
Experimental: as §1, with “(HEPDES19). […] For the MIC80 measurements, a 1.5 fold dilution series of the compounds was prepared in Mueller-Hinton II broth.” for “(HEPDES19).”, “flora. S. aureus (ATCC 29213) is methicillin-sensitive Staphylococcus aureus (MSSA) strain and it was used as a model strain to measure the MIC80.” for “flora.”
as §2

[10] = tested on: S. aureus and/or S. saprophyticus; experiment: MIC80 on S. aureus and/or S. saprophyticus; assay type: cell-based; settings: read-out: MIC80 against S. aureus and/or S. saprophyticus
Experimental: as §1, with “(HEPDES19). […] For the MIC80 measurements, a 1.5 fold dilution series of the compounds was prepared in Mueller-Hinton II broth.” for “(HEPDES19).”, “flora. S. aureus (ATCC 29213) is methicillin-sensitive Staphylococcus aureus (MSSA) strain and it was used as a model strain to measure the MIC80.” for “flora.”

[11] = tested on: Enterobacter cloacae complex; experiment: microbe, parasite or virus in culture; assay type: cell-based
Experimental: as §1
(§3) All these MDR-bacteria are at least resistant to two classes of the antibiotics among five groups and/or specific antibiotics including quinolones/fluorquinolones, carbapenems, cephalosporins, aminoglycosides and piperacillin-tazobactam.

[12] = tested on: Klebsiella pneumoniae; experiment: microbe, parasite or virus in culture; assay type: cell-based
Experimental: as §1, §3

[13] = tested on: MDR E. coli; experiment: microbe, parasite or virus in culture; assay type: cell-based
Experimental: as §1, §3

[14] = tested on: Citrobacter koseri; experiment: microbe, parasite or virus in culture; assay type: cell-based
Experimental: as §1, §3

[15] = tested on: MDR Enterobacteriaceae; experiment: organism not typed; assay type: cell-based
Experimental: as §1, §3

[16] = tested on: Morganella morganii; experiment: microbe, parasite or virus in culture; assay type: cell-based
Experimental: as §1, §3

Which MIC80 ([1]; ATCC 25923 / MRSA, S. aureus ATCC 25923) does the source give for `COc1ccccc1C(=O)Oc1cccccc1=O` [Compound 285] here?
The MIC80 was 8.8 µM (≈ 2.26 µg/mL).

And the MIC80 ([1]; ATCC 29213 / MRSA, S. aureus ATCC 29213 (Table 3))?
Its MIC80 is 8.8 µM (≈ 2.26 µg/mL).

And the MIC80 ([1]; BAA-976 / MRSA, S. aureus ATCC BAA 976)?
Its MIC80 is 8.8 µM (≈ 2.26 µg/mL).

And the MIC80 ([1]; BAA-977 / MRSA, S. aureus ATCC BAA 977)?
Its MIC80 is 8.8 µM (≈ 2.26 µg/mL).

What about the MIC80 ([1]; MRSA, Sa1 (MRSA)) of the same compound?
Its MIC80 is 8.8 µM (≈ 2.26 µg/mL).

What about the MIC80 ([1]; MRSA, Sa2 (MRSA)) of the same compound?
The MIC80 was 8.8 µM (≈ 2.26 µg/mL).

And the MIC80 ([1]; MRSA, Sa3 (MRSA))?
The MIC80 was 8.8 µM (≈ 2.26 µg/mL).

And the MIC80 ([1]; MRSA, Sa5 (MRSA))?
Its MIC80 is 8.8 µM (≈ 2.26 µg/mL).

And the MIC80 ([1]; MRSA, Sa6 (MRSA))?
The MIC80 was 8.8 µM (≈ 2.26 µg/mL).

And the MIC80 ([1]; MRSA, Sa7 (MRSA))?
The MIC80 was 8.8 µM (≈ 2.26 µg/mL).

And the MIC80 ([1]; MRSA, Sa8 (MRSA))?
The MIC80 was 8.8 µM (≈ 2.26 µg/mL).

And the MIC80 ([1]; MRSA, Sa9 (MRSA))?
Its MIC80 is 8.8 µM (≈ 2.26 µg/mL).

And the MIC80 ([1]; MRSA, Sa10 (MRSA))?
Its MIC80 is 8.8 µM (≈ 2.26 µg/mL).

And the MIC80 ([1]; MRSA, Sa11 (MRSA))?
Its MIC80 is 8.8 µM (≈ 2.26 µg/mL).

What about the MIC80 ([1]; MRSA, Sa12 (MRSA)) of the same compound?
Its MIC80 is 8.8 µM (≈ 2.26 µg/mL).

And the MIC80 ([1]; MRSA, Sa14 (MRSA))?
The MIC80 was 8.8 µM (≈ 2.26 µg/mL).

And the MIC80 ([1]; MRSA, Sa15 (MRSA))?
The MIC80 was 5.9 µM (≈ 1.51 µg/mL).

What about the MIC80 ([1]; MRSA, Sa16 (MRSA)) of the same compound?
The MIC80 was 8.8 µM (≈ 2.26 µg/mL).

What about the MIC80 ([1]; MRSA, Sa17 (MRSA)) of the same compound?
Its MIC80 is 8.8 µM (≈ 2.26 µg/mL).

And the MIC80 ([1]; MRSA, Sa18 (MRSA))?
The MIC80 was 8.8 µM (≈ 2.26 µg/mL).

What about the MIC80 ([1]; MRSA, Sa19 (MRSA)) of the same compound?
The MIC80 was 8.8 µM (≈ 2.26 µg/mL).

And the MIC80 ([1]; MRSA, Sa20 (MRSA))?
The MIC80 was 13.2 µM (≈ 3.38 µg/mL).

And the MIC80 ([1]; MRSA, Sa21 (MRSA))?
The MIC80 was 5.9 µM (≈ 1.51 µg/mL).

What about the MIC80 ([1]; MRSA, Sa22 (MRSA)) of the same compound?
The MIC80 was 5.9 µM (≈ 1.51 µg/mL).

And the MIC80 ([1]; MRSA, Sa23 (MRSA))?
Its MIC80 is 8.8 µM (≈ 2.26 µg/mL).

And the MIC80 ([2]; Se1 (Staphylococcus epidermidis))?
The MIC80 was 8.8 µM (≈ 2.26 µg/mL).

And the MIC80 ([2]; Se2 (Staphylococcus epidermidis))?
The MIC80 was 6.6 µM (≈ 1.69 µg/mL).

And the MIC80 ([2]; Se3 (Staphylococcus epidermidis))?
The MIC80 was 6.6 µM (≈ 1.69 µg/mL).

And the MIC80 ([2]; Se4 (Staphylococcus epidermidis))?
The MIC80 was 9.9 µM (≈ 2.54 µg/mL).

What about the MIC80 ([2]; Se5 (Staphylococcus epidermidis)) of the same compound?
The MIC80 was 9.9 µM (≈ 2.54 µg/mL).

What about the MIC80 ([3]; Sh1 (Staphylococcus hominis)) of the same compound?
The MIC80 was 9.9 µM (≈ 2.54 µg/mL).

What about the MIC80 ([3]; Sh2 (Staphylococcus hominis)) of the same compound?
The MIC80 was 9.9 µM (≈ 2.54 µg/mL).

What about the MIC80 ([3]; Sh3 (Staphylococcus hominis)) of the same compound?
The MIC80 was 6.6 µM (≈ 1.69 µg/mL).

What about the MIC80 [4] of the same compound?
Its MIC80 is 10.3 µM (≈ 2.64 µg/mL).

And the MIC80 ([5]; Acinetobacter baumannii, read-out: MIC80 A. baumannii, A. baumannii Ab1, MDR patient isolate)?
The MIC80 was 44.4 µM (≈ 11.4 µg/mL).

What about the MIC80 [6] of the same compound?
The MIC80 was 100 µM (≈ 25.6 µg/mL).

What about the CC50 [7] of the same compound?
The CC50 was over 50 µM.

What about the CC50 [8] of the same compound?
The CC50 was at least 100 µM.

And the MIC80 ([9]; CNS1 (Coagulase negative Staphylococcus))?
The MIC80 was 9.9 µM (≈ 2.54 µg/mL).

And the MIC80 ([9]; CNS2 (Coagulase negative Staphylococcus))?
The MIC80 was 6.6 µM (≈ 1.69 µg/mL).

What about the MIC80 [10] of the same compound?
The MIC80 was under 20 µM.

What does the source list for `CCn1cc(C(=O)O)c(=O)c2cnc(N3CCN(C(=O)NC)CC3)nc21` [Compound 322]?
MIC80 A. baumannii ([5]; A. baumannii Ab1, MDR patient isolate): >100 µM; inhibition of E. coli (in words) [6]: only modestly inhibited; MIC80 E. coli [6]: 29.6 µM (≈ 10.7 µg/mL); CC50 [8]: ≥ 100 µM; MIC80 ([11]; Ecc1 (Enterobacter cloacae complex)): 44.4 µM (≈ 16 µg/mL); MIC80 ([11]; one Enterobacter cloacae complex strain): 66.7 µM (≈ 24 µg/mL); MIC80 ([12]; Kp1 (Klebsiella pneumonia)): >100 µM; MIC80 ([12]; Kp6 (Klebsiella pneumonia)): >100 µM; MIC80 ([13]; Ec1 (MDR E. coli)): >100 µM; MIC80 ([13]; Ec2 (MDR E. coli)): 66.7 µM (≈ 24 µg/mL); MIC80 ([13]; Ec3 (MDR E. coli)): >100 µM; MIC80 ([13]; Ec4 (MDR E. coli)): >100 µM; MIC80 ([13]; Ec5 (MDR E. coli)): >100 µM; MIC80 ([13]; one MDR E. coli): 44.4 µM (≈ 16 µg/mL); MIC80 ([14]; Ck1 (Citrobacter koseri)): >100 µM; inhibition of MDR Enterobacteriaceae (in words) ([15]; except one MDR E. coli and one Enterobacter cloacae complex strain): No obvious inhibition; MIC80 ([16]; Mm1 (Morganella morganii)): >100 µM

Which MIC80 [4] does the source give for `O=C(Sc1cccccc1=O)c1ccccc1` [Compound 364] here?
Its MIC80 is 13.2 µM (≈ 3.2 µg/mL).

What about the “MIC80 E. coli” value [6] of the same compound?
Its value is 19.8 µM (≈ 4.8 µg/mL).

What about the MIC80 [6] of the same compound?
The MIC80 was under 30 µM.

What about the CC50 [7] of the same compound?
Its CC50 is over 50 µM.

What about the CC50 [8] of the same compound?
The CC50 was 67 µM.

And the MIC80 [10]?
Its MIC80 is under 20 µM.

What about the MIC80 ([11]; Enterobacter cloacae) of the same compound?
Its MIC80 is 33.3 µM (≈ 8.07 µg/mL).

What about the MIC80 ([12]; Klebsiella pneumoniae, Kp1 (Klebsiella pneumonia)) of the same compound?
Its MIC80 is over 33.3 µM.

And the MIC80 ([12]; Klebsiella pneumoniae, Kp6 (Klebsiella pneumonia))?
The MIC80 was over 33.3 µM.

What about the MIC80 ([13]; Escherichia coli, Ec1 (MDR E. coli)) of the same compound?
Its MIC80 is 33.3 µM (≈ 8.07 µg/mL).

And the MIC80 ([13]; Escherichia coli, Ec2 (MDR E. coli))?
The MIC80 was 14.8 µM (≈ 3.59 µg/mL).

What about the MIC80 ([13]; Escherichia coli, Ec3 (MDR E. coli)) of the same compound?
Its MIC80 is 22.2 µM (≈ 5.38 µg/mL).

What about the MIC80 ([13]; Escherichia coli, Ec4 (MDR E. coli)) of the same compound?
Its MIC80 is 33.3 µM (≈ 8.07 µg/mL).

What about the MIC80 ([14]; Citrobacter koseri) of the same compound?
Its MIC80 is 33.3 µM (≈ 8.07 µg/mL).

And the MIC80 ([15]; read-out: MIC80 on MDR Enterobacteriaceae)?
The MIC80 was at most 20 µM.

What about the MIC80 ([16]; Morganella morganii) of the same compound?
The MIC80 was over 33.3 µM.
